According to PubChem BioAssay (NCI):
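The concentration for 50% growth inhibition is given as GI50. TGI denotes the concentration required for complete inhibition of growth.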

Columns and labels:
Assay in all cases: NCI tumour cell line growth inhibition, 384-well format
HL-60(TB) leukemia = tested on: HL-60(TB) leukemia
KM12 colon = tested on: KM12 colon
K-562 leukemia = tested on: K-562 leukemia
SK-MEL-28 melanoma = tested on: SK-MEL-28 melanoma
MCF7 breast = tested on: MCF7 breast
SN12C renal = tested on: SN12C renal
HCT-116 colon = tested on: HCT-116 colon
DU-145 prostate = tested on: DU-145 prostate
HS 578T breast = tested on: HS 578T breast
HOP-92 NSCLC = tested on: HOP-92 NSCLC
HCT-15 colon = tested on: HCT-15 colon
OVCAR-3 ovarian = tested on: OVCAR-3 ovarian
BT-549 breast = tested on: BT-549 breast
SR leukemia = tested on: SR leukemia
OVCAR-8 ovarian = tested on: OVCAR-8 ovarian
M14 melanoma = tested on: M14 melanoma
UO-31 renal = tested on: UO-31 renal
COLO 205 colon = tested on: COLO 205 colon
MDA-MB-468 breast = tested on: MDA-MB-468 breast
MDA-MB-435 melanoma = tested on: MDA-MB-435 melanoma
NCI-H23 lung = tested on: NCI-H23 lung
TK-10 renal = tested on: TK-10 renal
SNB-19 CNS = tested on: SNB-19 CNS
SK-MEL-5 melanoma = tested on: SK-MEL-5 melanoma
HOP-62 NSCLC = tested on: HOP-62 NSCLC
SK-OV-3 ovarian = tested on: SK-OV-3 ovarian
SK-MEL-2 melanoma = tested on: SK-MEL-2 melanoma
IGROV1 ovarian = tested on: IGROV1 ovarian
PC-3 prostate = tested on: PC-3 prostate
SF-539 CNS = tested on: SF-539 CNS
SW-620 colon = tested on: SW-620 colon
SF-295 CNS = tested on: SF-295 CNS
UACC-257 melanoma = tested on: UACC-257 melanoma
HT29 colon = tested on: HT29 colon
CAKI-1 renal = tested on: CAKI-1 renal
NCI-H226 lung = tested on: NCI-H226 lung
EKVX NSCLC = tested on: EKVX NSCLC
MDA-MB-231 breast = tested on: MDA-MB-231 breast
SNB-75 CNS = tested on: SNB-75 CNS
SF-268 CNS = tested on: SF-268 CNS
MALME-3M melanoma = tested on: MALME-3M melanoma
NCI-H522 lung = tested on: NCI-H522 lung
786-0 renal = tested on: 786-0 renal
A498 renal = tested on: A498 renal
A549 NSCLC = tested on: A549 NSCLC
MOLT-4 leukemia = tested on: MOLT-4 leukemia
NCI-H322M lung = tested on: NCI-H322M lung
ACHN renal = tested on: ACHN renal
RXF 393 renal = tested on: RXF 393 renal
NCI-H460 NSCLC = tested on: NCI-H460 NSCLC
OVCAR-5 ovarian = tested on: OVCAR-5 ovarian
U251 glioblastoma = tested on: U251 glioblastoma
OVCAR-4 ovarian = tested on: OVCAR-4 ovarian
UACC-62 melanoma = tested on: UACC-62 melanoma
T-47D breast = tested on: T-47D breast

## CC(C)N(C[C@H]1O[C@@H](n2cnc3c(N)ncnc32)[C@H](O)[C@@H]1O)C1CC(CCc2nc3ccc(C(C)(C)C)cc3[nH]2)C1 (stereo not given in full)
HL-60(TB) leukemia
  GI50: 13.3 µM
  TGI: 26 µM
KM12 colon
  GI50: 39 µM
  TGI: > 100 µM
K-562 leukemia
  GI50: 31 µM
  TGI: > 100 µM
SK-MEL-28 melanoma
  GI50: 18 µM
  TGI: 31.9 µM
MCF7 breast
  GI50: 20 µM
  TGI: 45.2 µM
SN12C renal
  GI50: > 100 µM
  TGI: > 100 µM
HCT-116 colon
  GI50: 41.9 µM
  TGI: > 100 µM
DU-145 prostate
  GI50: > 100 µM
  TGI: > 100 µM
HS 578T breast
  GI50: 20.5 µM
  TGI: 37 µM
HOP-92 NSCLC
  GI50: 19.2 µM
  TGI: 40.9 µM
HCT-15 colon
  GI50: > 100 µM
  TGI: > 100 µM
OVCAR-3 ovarian
  GI50: 49.6 µM
  TGI: > 100 µM
BT-549 breast
  GI50: 18 µM
  TGI: 32.5 µM
SR leukemia
  GI50: 17.9 µM
  TGI: 31.8 µM
OVCAR-8 ovarian
  GI50: > 100 µM
  TGI: > 100 µM
M14 melanoma
  GI50: 20 µM
  TGI: 37.1 µM
UO-31 renal
  GI50: > 100 µM
  TGI: > 100 µM
COLO 205 colon
  GI50: 25.6 µM
  TGI: 58.6 µM
MDA-MB-468 breast
  GI50: 24.8 µM
  TGI: 50.1 µM
MDA-MB-435 melanoma
  GI50: 17.9 µM
  TGI: 31.8 µM
NCI-H23 lung
  GI50: 46.6 µM
  TGI: > 100 µM
TK-10 renal
  GI50: 83.9 µM
  TGI: > 100 µM
SNB-19 CNS
  GI50: > 100 µM
  TGI: > 100 µM
SK-MEL-5 melanoma
  GI50: 23.9 µM
  TGI: 69.4 µM
HOP-62 NSCLC
  GI50: > 100 µM
  TGI: > 100 µM
SK-OV-3 ovarian
  GI50: > 100 µM
  TGI: > 100 µM
SK-MEL-2 melanoma
  GI50: 15.8 µM
  TGI: 29.3 µM
IGROV1 ovarian
  GI50: 51 µM
  TGI: > 100 µM
PC-3 prostate
  GI50: 47 µM
  TGI: > 100 µM
SF-539 CNS
  GI50: 43.9 µM
  TGI: > 100 µM
SW-620 colon
  GI50: 52.3 µM
  TGI: > 100 µM
SF-295 CNS
  GI50: > 100 µM
  TGI: > 100 µM
UACC-257 melanoma
  GI50: 18.5 µM
  TGI: 33.4 µM
HT29 colon
  GI50: 19.1 µM
  TGI: 35.3 µM
CAKI-1 renal
  GI50: > 100 µM
  TGI: > 100 µM
NCI-H226 lung
  GI50: > 100 µM
  TGI: > 100 µM
EKVX NSCLC
  GI50: 88.1 µM
  TGI: > 100 µM
MDA-MB-231 breast
  GI50: 35.4 µM
  TGI: > 100 µM
SNB-75 CNS
  GI50: 22.5 µM
  TGI: 44.9 µM
SF-268 CNS
  GI50: 22.9 µM
  TGI: 47.9 µM
MALME-3M melanoma
  GI50: 18 µM
  TGI: 32 µM
NCI-H522 lung
  GI50: 20.1 µM
  TGI: 35.3 µM
786-0 renal
  GI50: > 100 µM
  TGI: > 100 µM
A498 renal
  GI50: > 100 µM
  TGI: > 100 µM
A549 NSCLC
  GI50: > 100 µM
  TGI: > 100 µM
MOLT-4 leukemia
  GI50: 18.8 µM
  TGI: 32.8 µM
NCI-H322M lung
  GI50: > 100 µM
  TGI: > 100 µM
ACHN renal
  GI50: > 100 µM
  TGI: > 100 µM
RXF 393 renal
  GI50: 25.3 µM
  TGI: 79 µM
NCI-H460 NSCLC
  GI50: 20.3 µM
  TGI: 43 µM
OVCAR-5 ovarian
  GI50: > 100 µM
  TGI: > 100 µM
U251 glioblastoma
  GI50: 41.7 µM
  TGI: > 100 µM
OVCAR-4 ovarian
  GI50: 79.9 µM
  TGI: > 100 µM
UACC-62 melanoma
  GI50: 16.9 µM
  TGI: 30.7 µM
T-47D breast
  GI50: 39 µM
  TGI: > 100 µM
